Results on four compounds are retold here after article PMC12483151, “Late-Stage Functionalization of Lysine to Organelle-Targeting Fluorescent Probes” (JACS Au, 2025).

Where “and” joins values, the source holds several entries; their conditions need not be identical. Equal values may be shown once. Where a SMILES comes first, the peptide text is derived from it.

One series has as its system E. coli. To be noted: MHB, 37 °C, 18 h, OD600; for Discrete-well MIC (CLSI definition, two-fold dilutions): E. coli ~5 x 10^5 CFU/mL, lowest concentration with ≤ 10 % growth; for Extrapolated (interpolated) MIC (4-parameter logistic fit): E. coli, concentration at 10 % growth by curve fit. Here is the method:
Plates were sealed and incubated
(1 picture or pasted object on this page, not shown here)

The test system of series [1] is T-47D cells. Put plainly: Mitochondrial colocalization imaging with MitoTracker Red. The format is cell-based, Human. Particulars: T-47D live cells.
Procedure: Cells were plated in an IBIDI 8-well glass bottom chamber at a density of 25,000 cells per well in media and allowed to adhere overnight at 37 °C, 5% CO2. Fresh 10 mM stock solutions of probes were prepared in DMSO on the day of experimentation. Working solutions of all compounds in media were prepared on the day of experimentation. Culture media was removed from the wells, and 200 mL of 100 nM probe was added to the desired wells and placed in an incubator for 30 min. Media was removed from the wells, and 200 mL of 100 nM MitroTracker-Red FM (ThermoFisher, M22425) was added to the desired wells and placed in an incubator for 15 min. Staining media was removed, and cells were washed with 200 μL of PBS for 5 min (repeated 3 times). PBS was removed and replaced with 200 mL of fresh medium, followed by immediate imaging. Five images were captured for each well. Colocalization analysis for Pearson’s R (R) and Mander’s Colocalization Coefficient (MCC) was conducted using the EzColocalization Plugin for ImageJ.
Colocalization studies – EzColocalization Details. Co-localization studies were done using
EzColocalization. EzColocalization is an ImageJ Application Program Interface (APIs)-an open-source
plugin, where individual cells can be highlighted and colocalization studies can be run across three
channels. The metric matrix for TOS (linear scaling) in the heatmap quantifies colocalization. FT […]
In series [2] the test system is T-47D cells.

On to `CC(=O)N[C@@H](CCCCN)C(=O)N[C@@H](CCCNC(=N)N)C(=O)N[C@@H](Cc1c[nH]c2ccccc12)C(=O)N[C@@H](CCCNC(=N)N)C(=O)N[C@@H](Cc1c[nH]c2ccccc12)C(N)=O` [2g] (Ac-KRWRW-NH2), for which, in the series with E. coli, the “Discrete-well MIC (CLSI definition, two-fold dilutions)” value came out at 0.125 mM; the “Extrapolated (interpolated) MIC (4-parameter logistic fit)” value is 0.0693 mM and 0.069 ± 0.06 mM.
Turning to `COc1cccc2c1C(=O)c1c(O)c3c(c(O)c1C2=O)C[C@@](O)(C(=O)CO)C[C@@H]3O[C@H]1C[C@H](N)[C@H](O)[C@H](C)O1` [Dox, doxorubicin], in the series on T-47D cells [1] (100 nM probe, 100 nM MitoTracker Red, EzColocalization/ImageJ, 1 = perfect colocalization, -1 = none), the “Pearson's coefficient (colocalization with MitoTracker Red)” value came out at 0.397. In addition, the subcellular localization entry with T-47D cells [1] (100 nM, co-stained with MitoTracker Red) is “primarily colocalized with the nucleus”. Further, in the series with T-47D cells [2] (100 nM, 1 h, Annexin V/PI, n = 3 biological replicates), the “survival less than DOX-Py” value came out at 20%. In the series on T-47D cells [2] (Annexin V/PI flow cytometry (100 nM, 1 h per Figure S25)), the survival rate came out at 40%.
Turning to `COc1ccc(C(=O)c2c(-c3ccc(OC)cc3)cc(-c3ccc(OC)cc3)[n+](CCCC[C@H](NC(C)=O)C(=O)N[C@@H](CCCNC(=N)N)C(=O)N[C@@H](Cc3c[nH]c4ccccc34)C(=O)N[C@@H](CCCNC(=N)N)C(=O)N[C@@H](Cc3c[nH]c4ccccc34)C(N)=O)c2-c2ccc(OC)cc2)cc1` [5g], in the series with E. coli, the “Discrete-well MIC (CLSI definition, two-fold dilutions)” value came to 0.125 mM; the “Extrapolated (interpolated) MIC (4-parameter logistic fit)” value is 0.0715 mM and 0.072 ± 0.01 mM.
In the case of `COc1ccc(C(=O)c2c(-c3ccc(OC)cc3)cc(-c3ccc(OC)cc3)[n+](CCCC[C@H](NC(=O)[C@H](CC(=O)O)NC(=O)[C@H](CC(C)C)NC(C)=O)C(=O)N[C@H](C(=O)N[C@@H](CC(N)=O)C(=O)N[C@@H](CCCNC(=N)N)C(N)=O)C(C)C)c2-c2ccc(OC)cc2)cc1` [5b], the “Percentage cell death (average)” value in the series with T-47D cells [2] (100 nM, 1 h, Annexin V/PI, n = 3 biological replicates, one average given for 4f and 5b) stood at 4.6%.
